Results on one compound are retold here after patent US20240246960A1 (adMare Therapeutics Society, priority 2021, published 2024).

The subject of series [1] is pH2AX induction in HCT116 ATM−/− multicellular tumour spheroids. Description: Prodrug radiation sensitization in multicellular tumour spheroids (pH2AX induction following radiation). In kind it is cell-based. The following applies: Homo sapiens, HCT-116, 20 Gy. As to the method:
Prodrug compounds were assayed to determine their potency in 3D multicellular spheroids in media maintained under 20% vs […]. Multicellular tumour spheroids were grown to approximately 0.5 mm in diameter and irradiated with 20 Gy in combination with inhibitor test compounds to determine their potency using HCT116 and FaDu cell lines. Experiments were carried out in 96 well plates containing 0.7 mls of MEM media containing 10% FBS and 10 mM glucose under […] at 37° C. Following dilution of compounds 1:1000 from DMSO stocks, compounds were serially diluted from 10 μM down to 3.5 nM and 5-10 spheroids added. 96 well plates were constantly stirred to avoid spheroids settling during the course of the experiment. Endpoints were pDNA-PK (ser 2056) or pH2AX (ser 139) status in spheroid cryosections taken 1 or 2 hours following radiation and fixed immediately in formalin. Using tumour cell lines deficient in ATM improved the assay signal to noise and gH2AX readout. Using this assay prodrug activity could be compared in the more oxygenated outer spheroid layers versus less oxygenated hypoxic central cell layers.

Series [2] can be described thus: Microsomal stability assay, human liver microsomes. Format: in vitro ADME. As to the method: Samples were then mixed and centrifuged. Supernatants were used for HPLC-MS/MS analysis. […] Peak areas corresponding to the test compound were recorded.
Series [3] can be described thus: Microsomal stability assay, mouse liver microsomes. The following applies: Example 11.
For the next series, the target named is T1, DNA-PK (Homo sapiens, UniProt P78527).
T1 construct: purchased Invitrogen PR9107A
Nature of the series: DNA-PK Assay for Biochemical Enzymatic Inhibition (ADP Glo Kinase assay). The following applies: Table 2. A digest of the protocol:
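Human DNA-PK (25 ng) preincubated 15 min with compounds (ten three-fold dilutions) in HEPES pH 7.5, MgCl2, KCl, calf thymus DNA buffer, then substrate 434.4 μM and ATP 64.4 μM (final) for 60 min at room temperature. ADP-Glo luminescence; percent inhibition fitted by four-parameter regression for IC50.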

In another series the test system is FaDu cell line. Description: Prodrug activation in hypoxic stirred tumour cell suspensions. Format: in vitro ADME. The following applies: 10 μM, 4 hours.
In series [4] the target is T2, DNA-PK phosphorylation at Serine 2056 (Homo sapiens, UniProt P78527).
T2 construct: host or cells: FaDu
Description: Cellular Assay for Inhibition of DNA-PK Phosphorylation at Serine 2056 (FaDu cells, neocarzinostatin, sandwich ELISA). The following applies: Table 2. Format: cell-based. The procedure, abridged:
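FaDu cells were pretreated with compound (0.3% DMSO) for 1 h, then exposed to neocarzinostatin at 1 μg/mL final for 2 h to induce DSBs. Protein-normalized lysates were assayed by MSD sandwich ELISA for total and pSer2056 DNA-PK. IC50 came from variable-slope fits of % inhibition relative to DMSO and NCS controls.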

Where two headings read alike, the source gives them in different places.

Description for FaDu cell line: Prodrug compounds were assayed to determine their stability and rate of activation in stirred cell suspensions under 0.2 vs 5% oxygen. Compounds were diluted 1:1000 from DMSO stocks to 10 μM final concentration in tumour cell suspensions (1% by cell volume) in MEM media containing 10% FBS, 10 mM glucose & 3.7 g/L sodium bicarbonate. Cell lines assayed included A253, A549, Detroit562, FaDu, HCT116, HEP G2, HT29, SCC25, SCC9, SiHa & TC32. Compounds and cells were then incubated for 4 hours under constant mixing at 37° C. under 5% CO2 and either 0.2 or 5% O2. Following the incubation period cellular activation of the compounds was assayed via MeOH extraction and HPLC quantification.

Consider `CC(c1cnc([N+](=O)[O-])n1C)N(c1cnc2cc(N3CCOCC3)nc(OC3CCC(Nc4ncccn4)CC3)c2c1)S(C)(=O)=O` (centres unmarked) [LFA010, N-[1-(3-Methyl-2-nitro-imidazol-4-yl)ethyl]-N-[7-morpholino-5-[4-(pyrimidin-2-ylamino)cyclohexoxy]-1,6-naphthyridin-3-yl]methanesulfonamide], for which the EC50 in series [1] (5% O2, inner layers, read-out: Prodrug 5% O2 Inner layers EC50) was in the range of 0.01 to 0.5 µM; in series [1] (5% O2, outer layers, read-out: Prodrug 5% O2 Outer layers EC50), 0.01 to 0.5 µM; in series [1] (20% O2, outer layers, read-out: Prodrug 20% O2 Outer layers EC50), 1 to 10 µM. The “Microsomal Stability (human) % rem. 60 min” value in series [2] (Example 11, 60 min) is given as “E (% remaining = 0-25%)”. The microsomal CLint at 0.1 uM in series [2] (both sexes, human, liver microsomes, pH 7.4, Example 11) is < 116 µL/min/mg; in series [3] (male, CD-1, mouse, liver microsomes, pH 7.4, Microsomal Stability Mouse Clint) it was > 116 µL/min/mg. For the same compound, the “Microsomal Stability (mouse) % rem. 60 min” value in series [3] (60 min) is “E (% remaining = 0-25%)”. The IC50 lay in the range of 0.01 to 0.15 µM at DNA-PK and 1 to 10 µM in series [4]. The “Fraction of prodrug converted to active form, Hypoxic 0.2% O2” value in the series with FaDu cell line (0.2% O2) is recorded as “A (A is 0.15 to 1)”. In addition, the “Fraction of prodrug converted to active form, Oxic 5% O2” value in the series on FaDu cell line (5% O2) is given as “C (C is 0.02 to 0.05)”.
